Laboratory results published in PMC5796268, “Affinity Purification and Comparative Biosensor Analysis of Citrulline-Peptide-Specific Antibodies in Rheumatoid Arthritis” (International Journal of Molecular Sciences, 2018).

Test system: citrulline-containing peptides / affinity-purified ACPA IgG
Assay: ELISA cross-reaction of affinity-purified ACPA IgG fractions with Cit-peptides
Assay type: binding, human
Conditions: ACPA 0.1 mg/mL, OD ratio Cit/Arg peptide
Excerpt: To see if the affinity-purified anti-peptide antibodies were able to recognize a different peptide, ELISA plates were coated with the individual peptides directly (fibrin, enolase, and EBNA-2) or indirectly, using neutravidin-coated plates and biotinylated peptides (filaggrin, collagen II, or vimentin) and the binding of the affinity-purified IgG fractions was monitored (Figure 2).
Figure 2 Reactivity of affinity-purified IgG fractions with the relevant and irrelevant citrulline-containing peptides. OD ratios that are OD with Cit/OD with Arg-containing peptides are shown. Cut-off values for each Cit- and Arg-containing peptide pair were calculated from OD indexes of 120 healthy samples (the means of OD indexes + 2 × SD). These were below 1.5 for all peptides. Results of a typical experiment.
ELISA was used to determine serum IgG ACPA concentrations and to test ACPA cross-reactions. The biotinylated, citrulline- or arginine-containing filaggrin19, vimentin, collagen II and the multi-epitope peptides were added at 1 µg/mL to the Medisorp plates (Greiner Bio-One GmbH, Kremsmünster, Germany) pre-coated with 5 µg/mL Neutravidin (Pierce Biotechnology, Rockford, IL, USA) overnight, at 4 °C, and then the plates were incubated for 1 h at 37 °C. […]
Serum samples were diluted 1:100. […] Plates were read at 450 nm with THERMO Multiscan EX ELISA-reader.

## H-Ttds-AXAXGSGSGXGXG-NH2 [multi-epitope, novel peptide consisting of two-two copies of Ala-Cit and Cit-Gly motifs separated with a neutral spacer, SGSG]
  binding of peptide to other affinity-purified ACPA IgG: bound to almost all other ACPA IgG, fibrin β was the exception
